This is an account of results in patent US9034398B2, “Traditional Chinese drug comprising Danshen extracts and Sanqi extracts and use thereof” (TASLY Pharmaceutical Group Co., LTD., priority 2009, dated 2015).

Molecules are shown by their SMILES.

The subject of test [1] is rat's mesenteric venule walls. The settings on record: prior researches; rat mesentery, I/R; cited from earlier work.
For test [2], the system named is rat myocardial I/R model. Briefly: Diameters of the venules of heart coronary vessels after myocardial I/R. The test is classed as in vivo. Particulars: 5 mg/kg BW/h intravenous drip; entire observation; FIG. 1. How it is done:
The rats were anesthetized by intramuscularly injecting 20 wt % urethane (1.25 g/kg) and fixed in the supine position. Neck skin was incised and anterior cervical muscles were separated to expose the trachea. Tracheal intubation was performed. Another end of the intubation was attached to a Small Animal Ventilator (ALC-V8, Shanghai Aoteshai Biology Science and Technology Limited Company, Shanghai, China) so as to carry out pressure breathing under the following conditions: a respiratory ratio of 1:1, a respiratory frequency of 75 times/min and a tidal volume of 12 mL/kg. The rectal temperature, measured with YSI REF 401 (Yellow Spring, Ohio, USA), was maintained at 37 37.5° C. by using a thermal blanket. […] Heart coronary vessel microcirculation had been recorded by a CD video recorder ([…], US). […] The diameter of the venules and RBC velocity under a same visual field were recorded before ischemia, 30 min after ischemia, 30 min after reperfusion and 60 min after reperfusion. Recordings were replayed at 25 frames·s^-1, diameters of the arterioles and the venules as well as RBC velocities were measured with Image-Pro Plus 5.0 software. RBC velocities in the rat's heart arterioles and venules were expressed as “mm/s”, and the diameters of the rat's heart arterioles and venules were expressed as “μm”.

Test [3] has as its system rat myocardial I/R model. Briefly: RBC velocity in the venules of heart coronary vessels after myocardial I/R. It is filed as in vivo. Particulars: for inhibitory effect on the decreased RBC velocity in the venules caused by I/R: from 30 min after reperfusion. As for the experimental part: The rats were anesthetized by intramuscularly injecting 20 wt % urethane (1.25 g/kg) and fixed in the supine position. Neck skin was incised and anterior cervical muscles were separated to expose the trachea. Tracheal intubation was performed. Another end of the intubation was attached to a Small Animal Ventilator (ALC-V8, Shanghai Aoteshai Biology Science and Technology Limited Company, Shanghai, China) so as to carry out pressure breathing under the following conditions: a respiratory ratio of 1:1, a respiratory frequency of 75 times/min and a tidal volume of 12 mL/kg. The rectal temperature, measured with YSI REF 401 (Yellow Spring, Ohio, USA), was maintained at 37 37.5° C. by using a thermal blanket. The chest was sterilized and opened at the intercostal space between 2nd 4th ribs near the left and right sternal border to expose the heart. The 3⁄8 curved needle threaded with 3-0 suture was used to pass through the site at 1 2 mm below the juncture of the pulmonary artery cone and the left atrial appendage. The suture was ligated. A polyethylene tubule was placed between the silk suture and myocardial tissue, the silk suture was […] to cause ischemia. Ligature was released 30 min later to establish an I/R model. Danshensu+I/R group (DLA+I/R group): a Danshensu aqueous solution (in normal saline, 1.25 mg/ml) was administrated at a dosage of 5 mg/kg BW/h by intravenous drip 20 min before the experiment and continued until the end of the entire experiment. Notoginsenoside R1+I/R group (R1+I/R group): a Notoginsenoside R1 aqueous solution (in normal saline, 1.25 mg/ml) was administrated at a dosage of 5 mg/kg BW/h by intravenous drip 20 min before the experiment and continued until the end of the entire experiment. […] Heart coronary vessel microcirculation had been recorded by a CD video recorder ([…], US). […] The diameter of the venules and RBC velocity under a same visual field were recorded before ischemia, 30 min after ischemia, 30 min after reperfusion and 60 min after reperfusion. Recordings were replayed at 25 frames·s^-1, diameters of the arterioles and the venules as well as RBC velocities were measured with Image-Pro Plus 5.0 software. RBC velocities in the rat's heart arterioles and venules were expressed as “mm/s”, and the diameters of the rat's heart arterioles and venules were expressed as “μm”.

The subject of the next test is rat's liver. The settings on record: previous researches, cited from earlier work.
Setting [4] is: 5 mg/kg BW/h intravenous drip, FIG. 2.

Turning to `O=C(O)C(O)Cc1ccc(O)c(O)c1` (centres unmarked) [Danshensu, (3,4-dihydroxyphenyl)lactic acid], in test [1], the “adhesion between leucocytes and venule walls” value was “potential for inhibiting”; the “expression of leucocytes adhesion molecules CD11b/CD18” value is recorded as “potential for inhibiting”; the “leakage of plasma albumin” value is recorded as “potential for inhibiting”. Further, the “change in the diameters of the venules of the heart coronary vessels” value with rat myocardial I/R model [2] is listed as “no significant change”. For the same compound, the “inhibitory effect on the decreased RBC velocity in the venules caused by I/R” value with rat myocardial I/R model [3] (setting [4]) is “significantly inhibitory effect”. Moreover, the “course of the inhibitory effect on decreased RBC velocity” value in the test on rat myocardial I/R model [3] (5 mg/kg BW/h intravenous drip, until 60 min after reperfusion, FIG. 2) is “does not further improved”. Besides, the “amelioration of RBC velocity in the venules of the heart coronary vessels caused by I/R (summary)” value in the test on rat myocardial I/R model [3] (rats, summary statement of the description) is “transiently ameliorate”.

For the compound `CC(C)=CCC[C@](C)(O[C@@H]1O[C@H](CO)[C@@H](O)[C@H](O)[C@H]1O)[C@H]1CC[C@]2(C)[C@@H]1[C@H](O)C[C@@H]1[C@@]3(C)CC[C@H](O)C(C)(C)[C@@H]3[C@@H](O[C@@H]3O[C@H](CO)[C@@H](O)[C@H](O)[C@H]3O[C@@H]3OC[C@@H](O)[C@H](O)[C@H]3O)C[C@]12C` [Notoginsenoside R1], in the test on rat myocardial I/R model [2], the “change in the diameters of the venules of the heart coronary vessels” value is “no significant change”. The “leukocytes adhered to rat's liver caused by I/R” value in the test on rat's liver is on record as “can reduce”. Further, the “microcirculation disorder of the liver” value in the test on rat's liver (rat, I/R) was “can ameliorate”. Moreover, the “inhibitory effect on the decreased RBC velocity in the venules caused by I/R” value in the test on rat myocardial I/R model [3] (setting [4]) was “does not display a significantly inhibitory effect”.
